# The source made the active and inactive calls. No cut-off for these calls is given here.
# Key:
# Rattus norvegicus [1] = organism: Rattus norvegicus; test: Displacement of [3H]a,b-MeATP from rat urinary bladder P2X receptor at 100 uM measured after 120 mins by scintillation counting method relative to control
# Mus musculus [2] = test: Neurotoxicity in mouse assessed as induction of motor impairment at 100 mg/kg, ip measured at 0.5 hrs post dose by rotarod method; type: toxicity, organism-based; settings: in vivo
# Rattus norvegicus [3] = test: Anticonvulsant activity in maximal electroshock induced seizure Sprague-Dawley rat model assessed as suppression in hindlimb tonic extension at 30 mg/kg, ip measured at 0.5 hrs post dose; type: functional, organism-based
# [4] = molecular target: Galanin receptor type 2 (Homo sapiens) (UniProt O43603); test: Displacement of [125I]galanin from human recombinant GAL2 receptor expressed in CHO cells at 100 uM measured after 120 mins by scintillation counting method relative to control; type: cell-based
# Chain of Galanin receptor type 2 (Homo sapiens) (O43603 whole entry): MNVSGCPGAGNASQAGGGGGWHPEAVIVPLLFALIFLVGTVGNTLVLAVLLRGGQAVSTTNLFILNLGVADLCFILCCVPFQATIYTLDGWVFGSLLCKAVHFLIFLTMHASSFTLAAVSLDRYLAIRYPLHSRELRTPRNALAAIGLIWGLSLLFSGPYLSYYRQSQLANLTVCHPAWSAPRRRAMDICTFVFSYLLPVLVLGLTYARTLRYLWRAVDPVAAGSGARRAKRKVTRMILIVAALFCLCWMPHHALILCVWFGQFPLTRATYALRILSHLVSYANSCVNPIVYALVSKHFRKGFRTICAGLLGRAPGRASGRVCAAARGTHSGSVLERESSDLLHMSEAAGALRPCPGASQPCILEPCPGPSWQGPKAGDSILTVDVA
# [5] = molecular target: 5-hydroxytryptamine receptor 3A (Homo sapiens) (UniProt P46098); test: Displacement of [3H]BRL 43694 from human recombinant 5HT3 receptor expressed in CHO cells at 100 uM measured after 120 mins by scintillation counting method relative to control; type: cell-based
# Chain of 5-hydroxytryptamine receptor 3A (Homo sapiens) (P46098 whole entry): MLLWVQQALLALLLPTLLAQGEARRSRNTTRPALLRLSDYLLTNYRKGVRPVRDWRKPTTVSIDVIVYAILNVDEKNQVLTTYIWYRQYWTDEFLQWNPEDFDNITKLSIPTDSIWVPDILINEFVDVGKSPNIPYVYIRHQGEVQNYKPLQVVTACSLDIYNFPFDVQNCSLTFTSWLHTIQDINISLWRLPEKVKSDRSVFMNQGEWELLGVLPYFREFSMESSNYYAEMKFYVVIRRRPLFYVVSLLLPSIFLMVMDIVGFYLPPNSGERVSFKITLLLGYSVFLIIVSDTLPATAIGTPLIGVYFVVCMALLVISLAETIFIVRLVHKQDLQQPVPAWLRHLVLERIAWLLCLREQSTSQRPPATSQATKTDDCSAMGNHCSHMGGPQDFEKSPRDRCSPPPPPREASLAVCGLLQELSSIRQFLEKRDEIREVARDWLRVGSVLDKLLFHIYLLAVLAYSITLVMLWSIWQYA
# Mus musculus [6] = test: Anticonvulsant activity in 6-Hz induced seizure mouse model assessed as restoration of normal activity within 10 secs from stimulation at 100 mg/kg, ip at 44 mA measured at […] post dose; type: functional, organism-based
# Rattus norvegicus [7] = test: Anticonvulsant activity in maximal electroshock induced seizure Sprague-Dawley rat model assessed as suppression in hindlimb tonic extension at 30 mg/kg, ip measured at […] post dose; type: functional, organism-based
# Rattus norvegicus [8] = test: Neurotoxicity in po dosed Sprague-Dawley rat assessed as behavioral change by measuring time to peak effect; type: toxicity, organism-based; settings: in vivo
# Rattus norvegicus [9] = test: Anticonvulsant activity in maximal electroshock induced seizure Sprague-Dawley rat model assessed as suppression in hindlimb tonic extension at 30 mg/kg, ip measured at 1 hr post dose; type: functional, organism-based
# Rattus norvegicus [10] = test: Neurotoxicity in Sprague-Dawley rat assessed as behavioral change at 30 mg/kg, ip measured at 1 hr post dose; type: toxicity, organism-based; settings: in vivo
# Rattus norvegicus [11] = test: Neurotoxicity in Sprague-Dawley rat assessed as behavioral change at 30 mg/kg, ip measured at 2 hrs post dose; type: toxicity, organism-based; settings: in vivo
# Rattus norvegicus [12] = test: Neurotoxicity in Sprague-Dawley rat assessed as behavioral change at 30 mg/kg, ip measured at […] post dose; type: toxicity, organism-based; settings: in vivo
# Rattus norvegicus [13] = test: Neurotoxicity in Sprague-Dawley rat assessed as behavioral change at 30 mg/kg, ip measured at 4 hrs post dose; type: toxicity, organism-based; settings: in vivo
# [14] = Protection index, ratio of TD50 for neurotoxicity in po dosed Sprague-Dawley rat model to ED50 for po dosed pentylenetetrazole induced seizure Sprague-Dawley rat model; type: toxicity, organism-based; settings: in vivo, read-out: Ratio TD50/ED50
# Rattus norvegicus [15] = test: Anticonvulsant activity in po dosed pentylenetetrazole induced seizure Sprague-Dawley rat model assessed as no observable episode of clonic convulsion of at least 5 secs; type: functional
# Rattus norvegicus [16] = test: Neurotoxicity in Sprague-Dawley rat assessed as behavioral change at 30 mg/kg, ip measured at 0.5 hrs post dose; type: toxicity, organism-based; settings: in vivo
# [17] = molecular target: Muscarinic acetylcholine receptor M2 (Homo sapiens) (UniProt P08172); test: Displacement of [3H]AF-DX384 from human recombinant M2 receptor expressed in CHO cells at 100 uM measured after 60 mins by scintillation counting method relative to control; type: cell-based
# Chain of Muscarinic acetylcholine receptor M2 (Homo sapiens) (P08172 whole entry): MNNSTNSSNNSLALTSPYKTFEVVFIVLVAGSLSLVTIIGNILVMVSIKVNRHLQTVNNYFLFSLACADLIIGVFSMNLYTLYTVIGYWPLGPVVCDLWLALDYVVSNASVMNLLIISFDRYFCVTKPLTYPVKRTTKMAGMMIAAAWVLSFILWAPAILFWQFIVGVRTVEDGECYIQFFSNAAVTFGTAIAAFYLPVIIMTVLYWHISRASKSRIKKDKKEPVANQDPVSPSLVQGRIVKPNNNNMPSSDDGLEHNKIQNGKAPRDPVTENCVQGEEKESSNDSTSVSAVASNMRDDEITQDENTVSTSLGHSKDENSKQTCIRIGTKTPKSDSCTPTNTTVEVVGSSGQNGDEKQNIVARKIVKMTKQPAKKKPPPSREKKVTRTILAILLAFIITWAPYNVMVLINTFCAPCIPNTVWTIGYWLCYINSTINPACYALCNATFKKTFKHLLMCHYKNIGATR
# [18] = molecular target: Histamine H1 receptor (Homo sapiens) (UniProt P35367); test: Displacement of [3H]pyrilamine from human recombinant H1 receptor expressed in HEK293 cells at 100 uM measured after 60 mins by scintillation counting method relative to control; type: cell-based
# Chain of Histamine H1 receptor (Homo sapiens) (P35367 whole entry): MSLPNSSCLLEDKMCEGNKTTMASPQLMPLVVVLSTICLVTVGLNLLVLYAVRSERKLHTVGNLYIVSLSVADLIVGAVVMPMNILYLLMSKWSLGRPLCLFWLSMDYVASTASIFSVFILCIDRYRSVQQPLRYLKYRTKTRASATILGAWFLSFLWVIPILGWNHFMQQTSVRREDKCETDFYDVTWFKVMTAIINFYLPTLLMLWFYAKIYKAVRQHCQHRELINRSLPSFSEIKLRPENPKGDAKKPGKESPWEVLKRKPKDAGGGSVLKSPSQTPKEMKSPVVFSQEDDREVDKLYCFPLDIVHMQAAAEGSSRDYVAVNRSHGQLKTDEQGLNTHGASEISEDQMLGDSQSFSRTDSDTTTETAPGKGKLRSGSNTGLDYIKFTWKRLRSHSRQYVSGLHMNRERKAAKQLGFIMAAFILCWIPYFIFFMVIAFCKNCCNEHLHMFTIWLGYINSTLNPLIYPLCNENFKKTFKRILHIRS
# Rattus norvegicus [19] = test: Anticonvulsant activity in maximal electroshock induced seizure Sprague-Dawley rat model assessed as suppression in hindlimb tonic extension at 30 mg/kg, po measured at 0.5 hrs post dose; type: functional, organism-based
# Mus musculus [20] = test: Anticonvulsant activity in pentylenetetrazole induced seizure mouse model assessed as no observable episode of clonic convulsion of at least 5 secs at 100 mg/kg, ip measured at 0.5 hrs post dose; type: functional, organism-based
# [21] = molecular target: Gastrin/cholecystokinin type B receptor (Homo sapiens) (UniProt P32239); test: Displacement of [125I]CCK-8s from human recombinant CCK2 receptor expressed in CHO cells at 100 uM measured after 60 mins by scintillation counting method relative to control; type: cell-based
# Chain of Gastrin/cholecystokinin type B receptor (Homo sapiens) (P32239 whole entry): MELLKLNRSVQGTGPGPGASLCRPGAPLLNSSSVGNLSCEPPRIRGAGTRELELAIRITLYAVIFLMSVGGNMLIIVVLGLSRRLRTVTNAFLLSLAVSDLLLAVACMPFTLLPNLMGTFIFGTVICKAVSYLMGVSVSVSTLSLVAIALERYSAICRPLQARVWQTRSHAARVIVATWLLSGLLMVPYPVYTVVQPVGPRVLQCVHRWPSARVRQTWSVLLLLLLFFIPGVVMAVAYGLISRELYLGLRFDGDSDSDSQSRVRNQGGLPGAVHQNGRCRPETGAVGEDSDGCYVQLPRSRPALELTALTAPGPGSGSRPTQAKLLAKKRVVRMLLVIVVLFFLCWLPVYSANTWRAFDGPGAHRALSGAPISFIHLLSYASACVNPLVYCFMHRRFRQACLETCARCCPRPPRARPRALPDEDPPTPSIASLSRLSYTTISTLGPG
# Mus musculus [22] = test: Anticonvulsant activity in pentylenetetrazole induced seizure mouse model assessed as no observable episode of clonic convulsion of at least 5 secs at 300 mg/kg, ip measured at 4 hrs post dose; type: functional, organism-based
smiles,measurement,setting,value
CCC(CO)NC(=O)/C=C/c1ccc(Cl)cc1 (configuration not stated),inhibition,Rattus norvegicus [1],-8.2%
same,Activity,Mus musculus [2],Non-Toxic
same,Activity,Rattus norvegicus [3],Active
same,inhibition,[4],-7.3%
same,inhibition,[5],-1.6%
same,Activity,Mus musculus [6],Active
same,Activity,Rattus norvegicus [7],Active
same,Time,Rattus norvegicus [8],4 h
Cc1ccccc1/C=C/C(=O)N[C@@H](C)CO,Activity,Rattus norvegicus [9],Active
same,Activity,Rattus norvegicus [10],Non-Toxic
same,Activity,Rattus norvegicus [11],Non-Toxic
same,Activity,Rattus norvegicus [12],Non-Toxic
same,Activity,Rattus norvegicus [13],Non-Toxic
same,selectivity ratio,[14],> 7.18
same,ED50,Rattus norvegicus [15],69.6 mg/kg
same,Activity,Rattus norvegicus [16],Non-Toxic
CC(O)CNC(=O)/C=C/c1ccc(Cl)cc1 (configuration not stated),inhibition,[17],-2.8%
same,inhibition,[18],-10%
same,Activity,Rattus norvegicus [19],Active
same,Activity,Mus musculus [20],Active
same,inhibition,[21],-9.8%
same,Activity,Mus musculus [22],Active

# — ChEMBL document CHEMBL3875185, “Structure-anticonvulsant activity studies in the group of (E)-N-cinnamoyl aminoalkanols derivatives monosubstituted in phenyl ring with 4-Cl, 4-CH3 or 2-CH3” (Bioorg Med Chem, 2017)
